The values below come from patent publication US20230072860A1, “ISOXAZOLINE OXIME FORMATE COMPOUND, PREPARATION METHOD THEREFOR, HERBICIDAL COMPOSITION AND USE THEREOF” (QINGDAO KINGAGROOT CHEMICAL COMPOUND CO., LTD., priority 2020, published 2023).

Holding throughout (experiment): Experiment on weeding effect in post-emergence stage
Assay type in all cases: in vivo
Details in all cases: dose 15 g a.i./ha, fresh weight control rate level

Test [1] deals with Galium aparine. From the text:
(§1) Experiment on weeding effect in post-emergence stage:
(§2) Monocotyledonous and dicotyledonous weed seeds (Descurainia sophia, Capsella bursa-pastoris, Abutilon theophrasti, Galium aparine, Stellaria media, Lithospermum arvense, Rorippa indica, Alopecurus aequalis, Alopecurus japonicus, Beckmannia syzigachne, Sclerochloa dura, Conyza Canadensis, Phleum paniculatum, Veronica didyma Tenore, Eleusine indica, Bromus japonicus, Aegilops tauschii, Phalaris arundinacea, Amaranthus retroflexus, Chenopodium album, Commelina communis, Sonchus arvensis, Convolvulus arvensis, Cirsium setosum, Solanum nigrum, Acalypha australis, Digitaria sanguinalis, Echinochloa crusgalli, Setaria viridis, Setaria glauca, Leptochloa chinensis, Monochoria vaginalis, Sagittaria trolia, Scirpus juncoides, Cyperus rotundus, Cyperus iria, Cyperus difformis, Elmbristylis, Portulaca oleracea, Xanthium sibiricum, Pharbitis nil) and major crop seeds (wheat, corn, rice, soybean, cotton, oilseed rape, millet, sorghum, potato, sesame, ricinus) were placed in plastic pots filled with soil, then covered with 0.5-2 cm of soil, allowed to grow in a good greenhouse environment. After 2 weeks of sowing, the test plants were treated in the 2-3 leaf stage. The tested compounds of the present invention were respectively dissolved in acetone, then added with Tween 80 and 1.5 liter/ha of emulsifiable concentrate of methyl oleate as synergist, diluted with a certain amount of water to obtain a solution with a certain concentration, and sprayed with a spray tower onto the plants. After the application, the plants were cultured for 3 weeks in the greenhouse, and then the experimental results of the weeding were counted. The doses of the used compounds were 500, 250, 125, 60, 15 g a.i./ha, and the averages were obtained by repeating for three times.

In test [2] the test system is Amaranthus retroflexus.
From the text: as §1, §2

Test [3] has as its system Abutilon theophrasti.
From the text: as §1, §2

Test [4] has as its system Setaria viridis.
From the text: as §1, §2

Test [5] has as its system Leptochloa chinensis.
From the text: as §1, §2

For test [6], the system named is Echinochloa crusgalli.
From the text: as §1, §2

Test [7] deals with Veronica didyma Tenore.
From the text: as §1, §2

For test [8], the system named is Eleusine indica.
From the text: as §1, §2

In test [9] the test system is Digitaria sanguinalis.
From the text: as §1, §2

For `CC(C)=NOC(=O)C1(C)CC(c2cc(-n3c(=O)cc(C(F)(F)F)n(C)c3=S)c(F)cc2Cl)=NO1` (stereo not drawn) [Compound 218], in [1], the “weeding effect in post-emergence stage, Galium aparine (level)” value (“weeding effect … Galium aparine (level)” for short) is 5 (Level 5: growth control rate is above 85%). Further, the “weeding effect in post-emergence stage, Amaranthus retroflexus (level)” value (from here on “weeding effect … Amaranthus retroflexus (level)”) in test [2] is 5 (Level 5: growth control rate is above 85%). Further, in test [3], the “weeding effect in post-emergence stage, Abutilon theophrasti (level)” value (from here on “weeding effect … Abutilon theophrasti (level)”) is listed as 5 (Level 5: growth control rate is above 85%). Besides, in [4], the “weeding effect in post-emergence stage, Setaria viridis (level)” value (“weeding effect … Setaria viridis (level)” below) was 5 (Level 5: growth control rate is above 85%). Besides, in test [5], the “weeding effect in post-emergence stage, Leptochloa chinensis (level)” value (from here on “weeding effect … Leptochloa chinensis (level)”) was 5 (Level 5: growth control rate is above 85%). The “weeding effect in post-emergence stage, Echinochloa crusgalli (level)” value (“weeding effect … Echinochloa crusgalli (level)” below) in test [6] is on record as 5 (Level 5: growth control rate is above 85%). Also, the “weeding effect in post-emergence stage, Veronica didyma Tenore (level)” value (“weeding effect … Veronica didyma Tenore (level)” below) in [7] was 5 (Level 5: growth control rate is above 85%). Moreover, in test [8], the “weeding effect in post-emergence stage, Eleusine indica (level)” value (“weeding effect … Eleusine indica (level)” for short) is reported as 5 (Level 5: growth control rate is above 85%). For the same molecule, the “weeding effect in post-emergence stage, Digitaria sanguinalis (level)” value (shortened to “weeding effect … Digitaria sanguinalis (level)”) in [9] was 5 (Level 5: growth control rate is above 85%).

On to `CC(C)=NOC(=O)C1(C)CC(c2cc(-n3c(=O)n(C)c(=S)n(C)c3=O)c(F)cc2Cl)=NO1` (stereo not drawn) [Compound 10], for which, in test [1], the “weeding effect … Galium aparine (level)” value is reported as 5 (Level 5: growth control rate is above 85%). Also, the “weeding effect … Amaranthus retroflexus (level)” value in test [2] was 5 (Level 5: growth control rate is above 85%). For the same molecule, the “weeding effect … Abutilon theophrasti (level)” value in [3] is 5 (Level 5: growth control rate is above 85%). For the same molecule, the “weeding effect … Setaria viridis (level)” value in test [4] is listed as 5 (Level 5: growth control rate is above 85%). Moreover, in [5], the “weeding effect … Leptochloa chinensis (level)” value was 5 (Level 5: growth control rate is above 85%). The “weeding effect … Echinochloa crusgalli (level)” value in test [6] is listed as 5 (Level 5: growth control rate is above 85%). For the same molecule, the “weeding effect … Veronica didyma Tenore (level)” value in test [7] is reported as 5 (Level 5: growth control rate is above 85%). Further, the “weeding effect … Eleusine indica (level)” value in test [8] is reported as 5 (Level 5: growth control rate is above 85%). Moreover, the “weeding effect … Digitaria sanguinalis (level)” value in test [9] is listed as 5 (Level 5: growth control rate is above 85%).

Regarding `Cn1c(=S)n(C)c(=O)n(-c2cc(C3=NOC(C)(C(=O)ON=C(c4ccccc4)c4ccccc4)C3)c(Cl)cc2F)c1=O` (stereo not drawn) [Compound 140], in test [1], the “weeding effect … Galium aparine (level)” value is on record as 5 (Level 5: growth control rate is above 85%). For the same molecule, the “weeding effect … Amaranthus retroflexus (level)” value in test [2] is recorded as 5 (Level 5: growth control rate is above 85%). Also, the “weeding effect … Abutilon theophrasti (level)” value in [3] is on record as 5 (Level 5: growth control rate is above 85%). In addition, the “weeding effect … Setaria viridis (level)” value in test [4] is listed as 5 (Level 5: growth control rate is above 85%). Further, the “weeding effect … Leptochloa chinensis (level)” value in test [5] is listed as 5 (Level 5: growth control rate is above 85%). In addition, in test [6], the “weeding effect … Echinochloa crusgalli (level)” value was 5 (Level 5: growth control rate is above 85%). Also, the “weeding effect … Veronica didyma Tenore (level)” value in test [7] is 5 (Level 5: growth control rate is above 85%). Moreover, the “weeding effect … Eleusine indica (level)” value in test [8] is reported as 5 (Level 5: growth control rate is above 85%). For the same molecule, the “weeding effect … Digitaria sanguinalis (level)” value in [9] was 5 (Level 5: growth control rate is above 85%).

As for `CCC(CC)=NOC(=O)C1(C)CC(c2cc(-n3c(=O)n(C)c(=S)n(C)c3=O)c(F)cc2Cl)=NO1` (racemic) [Compound 83], the “weeding effect … Galium aparine (level)” value in test [1] is 5 (Level 5: growth control rate is above 85%). Also, the “weeding effect … Amaranthus retroflexus (level)” value in [2] is recorded as 5 (Level 5: growth control rate is above 85%). Besides, the “weeding effect … Abutilon theophrasti (level)” value in test [3] was 5 (Level 5: growth control rate is above 85%). In addition, the “weeding effect … Setaria viridis (level)” value in test [4] is given as 5 (Level 5: growth control rate is above 85%). In addition, the “weeding effect … Leptochloa chinensis (level)” value in test [5] is given as 5 (Level 5: growth control rate is above 85%). The “weeding effect … Echinochloa crusgalli (level)” value in [6] is given as 5 (Level 5: growth control rate is above 85%). Further, in test [7], the “weeding effect … Veronica didyma Tenore (level)” value was 5 (Level 5: growth control rate is above 85%). Further, in test [8], the “weeding effect … Eleusine indica (level)” value is listed as 5 (Level 5: growth control rate is above 85%). Besides, in [9], the “weeding effect … Digitaria sanguinalis (level)” value is listed as 5 (Level 5: growth control rate is above 85%).

For `COCC(C)=NOC(=O)C1(C)CC(c2cc(-n3c(=O)n(C)c(=S)n(C)c3=O)c(F)cc2Cl)=NO1` (mixture of isomers) [Compound 121], the “weeding effect … Galium aparine (level)” value in [1] is 5 (Level 5: growth control rate is above 85%). The “weeding effect … Amaranthus retroflexus (level)” value in [2] is on record as 5 (Level 5: growth control rate is above 85%). Further, in test [3], the “weeding effect … Abutilon theophrasti (level)” value is given as 5 (Level 5: growth control rate is above 85%). Also, in [4], the “weeding effect … Setaria viridis (level)” value is given as 5 (Level 5: growth control rate is above 85%). In addition, the “weeding effect … Leptochloa chinensis (level)” value in test [5] is recorded as 5 (Level 5: growth control rate is above 85%). For the same molecule, in [6], the “weeding effect … Echinochloa crusgalli (level)” value is 5 (Level 5: growth control rate is above 85%). Moreover, the “weeding effect … Veronica didyma Tenore (level)” value in test [7] is 5 (Level 5: growth control rate is above 85%). Also, the “weeding effect … Eleusine indica (level)” value in test [8] is listed as 5 (Level 5: growth control rate is above 85%). Moreover, in [9], the “weeding effect … Digitaria sanguinalis (level)” value is listed as 5 (Level 5: growth control rate is above 85%).

Consider `CC(C)=NOC(=O)C1(C)CC(c2nc(-n3c(=O)cc(C(F)(F)F)n(C)c3=O)c(F)cc2Cl)=NO1` (stereo not drawn) [Compound 170], for which the “weeding effect … Galium aparine (level)” value in [1] was 5 (Level 5: growth control rate is above 85%). The “weeding effect … Amaranthus retroflexus (level)” value in test [2] is listed as 5 (Level 5: growth control rate is above 85%). Moreover, the “weeding effect … Abutilon theophrasti (level)” value in [3] is 5 (Level 5: growth control rate is above 85%). For the same molecule, in [4], the “weeding effect … Setaria viridis (level)” value was 5 (Level 5: growth control rate is above 85%). The “weeding effect … Leptochloa chinensis (level)” value in test [5] is on record as 5 (Level 5: growth control rate is above 85%). Also, the “weeding effect … Echinochloa crusgalli (level)” value in test [6] is reported as 5 (Level 5: growth control rate is above 85%). Moreover, the “weeding effect … Veronica didyma Tenore (level)” value in test [7] is reported as 5 (Level 5: growth control rate is above 85%). Besides, the “weeding effect … Eleusine indica (level)” value in [8] is 5 (Level 5: growth control rate is above 85%). Besides, the “weeding effect … Digitaria sanguinalis (level)” value in [9] is 5 (Level 5: growth control rate is above 85%).

As for `CC(C)=NOC(=O)C1(C)CC(c2cc(-n3c(=S)cc(C(F)(F)F)n(C)c3=O)c(F)cc2Cl)=NO1` (stereo not drawn) [Compound 197], the “weeding effect … Galium aparine (level)” value in test [1] is reported as 5 (Level 5: growth control rate is above 85%). In addition, the “weeding effect … Amaranthus retroflexus (level)” value in test [2] is listed as 5 (Level 5: growth control rate is above 85%). In addition, the “weeding effect … Abutilon theophrasti (level)” value in test [3] is recorded as 5 (Level 5: growth control rate is above 85%). Moreover, the “weeding effect … Setaria viridis (level)” value in test [4] is 5 (Level 5: growth control rate is above 85%). Moreover, the “weeding effect … Leptochloa chinensis (level)” value in [5] was 5 (Level 5: growth control rate is above 85%). Further, in test [6], the “weeding effect … Echinochloa crusgalli (level)” value was 5 (Level 5: growth control rate is above 85%). In test [7], the “weeding effect … Veronica didyma Tenore (level)” value is reported as 5 (Level 5: growth control rate is above 85%). The “weeding effect … Eleusine indica (level)” value in test [8] is 5 (Level 5: growth control rate is above 85%). The “weeding effect … Digitaria sanguinalis (level)” value in test [9] was 5 (Level 5: growth control rate is above 85%).
